Patent publication US20230212180A1, “SUBSTITUTED PYRAZINE COMPOUND, PHARMACEUTICAL COMPOSITION COMPRISING SAME, AND USE THEREOF” (Sichuan Kelun-Biotech Biopharmaceutical Co., Ltd., priority 2020, published 2023)

Columns and labels:
[1] = Pharmacokinetic (PK) studies in Balb/c mouse; type: in vivo; conditions: female, Balb/c, mouse, in vivo
Description: Test Example 7: Pharmacokinetic (PK) Studies in Balb/c Mouse
The compound of Example 12, Control Compound 1, Control Compound 2, and TNO-155 were administered to female Balb/c mice by intravenous injection (IV) and gavage (PO) respectively to estimate the pharmacokinetic properties. Dosing amounts for IV and PO routes were 1 mg/kg and 10 mg/kg, respectively. The solvent for IV route was 5% DMSO+5% Solutol+90% Saline, and the solvent for PO route was 0.5% MC (sodium methylcellulose). Blood was collected at various time points after IV and PO administration. The blood from the test groups of the compound of Example 12, Control Compound 1, and Control Compound 2 was anticoagulated using EDTA.K2 and preserved at −80° C. The blood from the test groups of TNO-155 was anticoagulated using EDTA.K2 and centrifuged to obtain plasma samples, and the plasma samples were preserved at −80° C.
The blood or plasma samples were subjected to protein precipitation and then to the LC-MS/MS analysis. WinNonlin 6.3 software was used to calculate the pharmacokinetic parameters by non-compartmental model, and the results were listed in Table 7 below.

[2] = Pharmacokinetic (PK) studies in SD rat; type: in vivo; conditions: rat, male SD rats, plasma
Description: Test Example 6: Pharmacokinetic (PK) Studies in SD Rat
The compound of Example 12 and Control Compound 2 were administered to male SD rats by intravenous injection (IV) and gavage (PO) respectively to estimate the pharmacokinetic properties. Dosing amounts for IV and PO routes were 1 mg/kg and 5 mg/kg, respectively. The solvent for IV route was 5% DMSO+5% Solutol (polyoxyl 15-hydroxystearate)+90% Saline (physiological saline), and the solvent for PO route was 0.5% MC (sodium methylcellulose). Blood was collected at various time points after IV and PO administration. The blood was anticoagulated using EDTA.K2, and centrifuged to obtain plasma samples. The plasma samples were preserved at −80° C.
The plasma samples were subjected to protein precipitation and then to the LC-MS/MS analysis. WinNonlin 6.3 software was used to calculate the pharmacokinetic parameters by non-compartmental model, and the results were listed in Table 6 below.

[3] = Pharmacokinetic (PK) studies in beagle dog; type: in vivo; conditions: dog, male beagle dogs, plasma
Description: Test Example 8: Pharmacokinetic (PK) Studies in Beagle Dog
The compound of Example 12, Control Compound 1, Control Compound 2, and TNO-155 were administered to male beagle dogs by intravenous injection (IV) and gavage (PO) respectively to estimate the pharmacokinetic properties. Dosing amounts for IV and PO routes were 0.5 mg/kg and 2.5 mg/kg. The solvent for IV route was 5% DMSO+5% Solutol+90% Saline, and the solvent for PO route was 0.5% MC (sodium methylcellulose). Blood was collected at various time points after IV and PO administration. The blood was anticoagulated using EDTA.K2, and centrifuged to obtain plasma samples. The plasma samples were preserved at −80° C.
The plasma samples were subjected to protein precipitation and then to the LC-MS/MS analysis. WinNonlin 6.3 software was used to calculate the pharmacokinetic parameters by non-compartmental model, and the results were listed in Table 8 below.

CYP3A4 = target: T1, CYP3A4 (Homo sapiens, UniProt P08684); assay: Biochemical assay for CYP enzyme inhibition, P450-Glo CYP3A4 Screening System; type: in vitro ADME; conditions: estimated from percentage inhibition; read-out: IC50 (μM) CYP3A4
T1 construct: purchased Promega
Description: (§1) Test Example 5: Biochemical Assay for CYP Enzyme (Cytochrome P450) Inhibition
P450-Glo™ CYP3A4 Screening System, (Promega).
(§2) BMG PHERAstar FS Luminescent.
(§3) The experiments were carried out separately according to the instructions of the kits. The steps were as follows:
3.3. Inhibition Against CYP3A4:
(§4) Test group: The test compounds at different concentrations were added into a microplate, and Luciferin-IPA (3 NM), K3PO4 (100 mM), and CYP3A4 (2 nM) were added into each well, and pre-incubated at room temperature for 10 min. Thereafter, an NADPH regeneration system was added. The mixture was reacted at room temperature for 30 min. Finally, an equal volume of detection buffer was added and incubated at room temperature for 20 min, followed by chemiluminescence detection.
(§5) Negative control group: The experimental method for the negative control group was the same as that for the test group, except that the test compound was not added.
Blank control group: The experimental method for the blank control group was the same as that for the test group, except that the test compound was not added and that CYP3A4 was replaced with CYP3A4 Membrance (2 nM).
(§6) Percentage inhibition=(1−(the chemiluminescent signal value of the test compound group at a certain test concentration−the chemiluminescent signal value of the blank control group)/(the chemiluminescent signal value of the negative control group−the chemiluminescent signal value of the blank control group))×100%.
(§7) When the percentage inhibition was between 30% and 80%, a single value or a value range of the half maximal inhibitory concentration (IC50) of the compound against the CYP enzyme was estimated based on the following equation: IC50=X×(1−percentage inhibition)/percentage inhibition, wherein X was the test concentration of the compound.

CYP1A2 = target: T2, CYP1A2 (Homo sapiens, UniProt P05177); assay: Biochemical assay for CYP enzyme inhibition, P450-Glo CYP1A2 Screening System; type: in vitro ADME; conditions: estimated from percentage inhibition; read-out: IC50 (μM) CYP1A2
T2 construct: purchased Promega
T2 sequence (P05177 1-516): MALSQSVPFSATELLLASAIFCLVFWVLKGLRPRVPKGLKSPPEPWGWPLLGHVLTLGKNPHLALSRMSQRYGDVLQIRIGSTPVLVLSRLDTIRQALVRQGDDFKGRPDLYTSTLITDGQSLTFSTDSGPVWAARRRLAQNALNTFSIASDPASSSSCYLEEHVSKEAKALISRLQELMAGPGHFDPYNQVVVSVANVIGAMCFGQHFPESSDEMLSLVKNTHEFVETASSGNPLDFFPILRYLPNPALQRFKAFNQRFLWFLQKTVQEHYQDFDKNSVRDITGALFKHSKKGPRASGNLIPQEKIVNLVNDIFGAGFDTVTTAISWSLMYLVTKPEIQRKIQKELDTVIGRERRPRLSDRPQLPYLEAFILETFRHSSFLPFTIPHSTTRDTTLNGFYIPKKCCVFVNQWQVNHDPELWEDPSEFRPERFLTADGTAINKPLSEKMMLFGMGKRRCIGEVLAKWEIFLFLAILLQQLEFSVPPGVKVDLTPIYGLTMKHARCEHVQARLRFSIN
Description: as §1
P450-Glo™ CYP1A2 Screening System, (Promega);
as §2, §3
3.1. Inhibition Against CYP1A2:
as §4, with “Luciferin-ME (100 μM),” for “Luciferin-IPA (3 NM),”, “CYP1A2 (0.01 μmol/μL)” for “CYP3A4 (2 nM)”
as §5
Blank control group: The experimental method for the blank control group was the same as that for the test group, except that the test compound was not added and that CYP1A2 was replaced with CYP1A2 Membrance (0.01 μmol/μL).
as §6, §7

CYP2D6 = target: T3, CYP2D6 (Homo sapiens, UniProt P10635); assay: Biochemical assay for CYP enzyme inhibition, P450-Glo CYP2D6 Screening System; type: in vitro ADME; conditions: estimated from percentage inhibition; read-out: IC50 (μM) CYP2D6
T3 construct: purchased Promega
Description: as §1
P450-Glo™ CYP2D6 Screening System, (Promega);
as §2, §3
3.2. Inhibition Against CYP2D6:
Test group: The test compounds at different concentrations were added into a microplate, and Luciferin-ME EGE (3 μM), K3PO4 (100 mM), and CYP2D6 (5 nM) were added into each well, and pre-incubated at room temperature for 10 min. Thereafter, an NADPH regeneration system was added. The mixture was reacted at 37° C. for 30 min. Finally, an equal volume of detection buffer was added and incubated at room temperature for 20 min, followed by chemiluminescence detection.
as §5
Blank control group: The experimental method for the blank control group was the same as that for the test group, except that the test compound was not added and that CYP2D6 was replaced with CYP2D6 Membrance (5 nM).
as §6, §7

T1 sequence (P08684 whole entry): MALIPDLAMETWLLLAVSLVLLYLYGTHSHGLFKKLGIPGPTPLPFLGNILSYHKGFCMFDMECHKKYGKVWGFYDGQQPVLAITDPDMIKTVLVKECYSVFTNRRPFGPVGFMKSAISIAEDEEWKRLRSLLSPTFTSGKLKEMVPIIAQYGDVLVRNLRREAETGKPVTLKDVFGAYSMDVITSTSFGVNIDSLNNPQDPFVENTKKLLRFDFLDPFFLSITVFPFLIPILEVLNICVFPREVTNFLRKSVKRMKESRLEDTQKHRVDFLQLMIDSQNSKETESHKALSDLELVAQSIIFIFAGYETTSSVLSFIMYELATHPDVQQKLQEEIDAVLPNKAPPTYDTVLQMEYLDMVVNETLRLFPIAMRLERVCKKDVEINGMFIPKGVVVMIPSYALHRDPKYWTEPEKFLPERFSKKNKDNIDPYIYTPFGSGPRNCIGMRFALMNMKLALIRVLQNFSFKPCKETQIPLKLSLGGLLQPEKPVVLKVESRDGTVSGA
T3 sequence (P10635 whole entry): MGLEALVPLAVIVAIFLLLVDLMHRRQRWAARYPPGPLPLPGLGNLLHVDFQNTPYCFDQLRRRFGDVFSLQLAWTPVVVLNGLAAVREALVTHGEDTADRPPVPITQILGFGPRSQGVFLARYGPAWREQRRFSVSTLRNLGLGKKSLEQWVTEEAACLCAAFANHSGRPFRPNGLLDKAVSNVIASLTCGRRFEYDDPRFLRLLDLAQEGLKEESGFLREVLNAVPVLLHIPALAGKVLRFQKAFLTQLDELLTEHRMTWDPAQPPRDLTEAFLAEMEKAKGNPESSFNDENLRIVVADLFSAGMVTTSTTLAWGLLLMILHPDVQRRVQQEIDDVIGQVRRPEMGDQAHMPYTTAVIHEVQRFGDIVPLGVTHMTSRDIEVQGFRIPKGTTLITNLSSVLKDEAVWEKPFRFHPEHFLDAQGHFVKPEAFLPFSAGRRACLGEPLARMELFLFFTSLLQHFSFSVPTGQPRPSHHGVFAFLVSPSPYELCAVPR

Cc1nc(N2CCC3(CC2)CO[C@@H](C)[C@H]3N)c(CO)nc1Sc1ccnc(N)c1Cl [Control Compound 2]
AUC(0-t) ([1]; iv, 1 mg/kg): 576 ng·h/mL | clearance ([1]; iv, 1 mg/kg): 23.2 mL/min/kg | AUC(0-t) ([1]; po, 10 mg/kg): 3870 ng·h/mL | half-life ([1]; po, 10 mg/kg): 5.08 h | AUC(0-t) ([2]; IV, 1 mg/kg): 696 ng·h/mL | Cmax ([2]; IV, 1 mg/kg): 215 ng/mL | clearance ([2]; IV, 1 mg/kg): 24.6 mL/min/kg | AUC(0-t) ([2]; PO, 5 mg/kg): 2760 ng·h/mL | Cmax ([2]; PO, 5 mg/kg): 363 ng/mL | AUC(0-t) ([3]; IV, 0.5 mg/kg): 614 ng·h/mL | clearance ([3]; IV, 0.5 mg/kg): 13.2 mL/min/kg | AUC(0-t) ([3]; PO, 2.5 mg/kg): 2550 ng·h/mL | half-life ([3]; PO, 2.5 mg/kg): 12.3 h

C[C@@H]1OCC2(CCN(c3ncc(Sc4ccnc(N5CC(O)C5)c4Cl)nc3CO)CC2)[C@@H]1N [Control Compound 1]
AUC(0-t) ([1]; iv, 1 mg/kg): 2200 ng·h/mL | clearance ([1]; iv, 1 mg/kg): 7.21 mL/min/kg | AUC(0-t) ([1]; po, 10 mg/kg): 8690 ng·h/mL | half-life ([1]; po, 10 mg/kg): 4.61 h | IC50 (CYP3A4): > 10 µM | IC50 (CYP1A2): > 10 µM | IC50 (CYP2D6): 6.96 µM | AUC(0-t) ([3]; IV, 0.5 mg/kg): 1220 ng·h/mL | clearance ([3]; IV, 0.5 mg/kg): 7.08 mL/min/kg | AUC(0-t) ([3]; PO, 2.5 mg/kg): 3910 ng·h/mL | half-life ([3]; PO, 2.5 mg/kg): 10.5 h
